Structures can show the parent of a compound that is named as a salt.
Test: collision cross section in nitrogen (drift tube, single-field); higher = larger gas-phase ion size
[1] = ion type: [M+H], ion source: ESI, ion mode: Positive
[2] = ion type: [M+Na], ion source: ESI, ion mode: Positive
[3] = ion type: [M-H], ion source: ESI, ion mode: Negative
[4] = ion type: [M+H], ion source: APCI, ion mode: Positive
[5] = ion type: [M+], ion source: APCI, ion mode: Positive
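Also: chemical standards at 10 µM analysed by drift tube IMS-QTOF MS in about 3.95 torr nitrogen, mean of duplicate injections differing ≤1%, mass error below 10 ppm.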

Row | collision cross section in nitrogen [1] [Å²] | collision cross section in nitrogen [2] [Å²] | collision cross section in nitrogen [3] [Å²] | collision cross section in nitrogen [4] [Å²] | collision cross section in nitrogen [5] [Å²] | Structure (SMILES)
1 | 164 |  |  |  |  | CCCCCCCCCCCCN [Dodecylamine hydrochloride]
2 |  | 171.7 | 159.9 |  |  | O=C(O)c1ccccc1C(=O)OC1CCCCC1 [Monocyclohexyl phthalate]
3 | 148.8 |  |  | 148.2 |  | O=C1CCCCCCCCCCCN1 [Azacyclotridecan-2-one]
4 | 192.2 | 198.6 | 194.5 | 192.3 |  | CCOC(=O)COc1ccc2c(c1)CC(NCC(O)c1cccc(Cl)c1)CC2 (configuration not stated)
5 |  |  | 158.1 |  |  | CCCCCCCCCCOS(=O)(=O)O [Sodium decyl sulfate]
6 | 128.2 |  |  | 128.3 |  | NCCCN1CCOCC1 [4-Morpholinepropanamine]
7 | 145.2 | 161.3 | 144.8 | 144.2 |  | CSc1nnc(C(C)(C)C)c(=O)[nH]1 [Metribuzin-DA]
8 | 151.1 | 167.9 |  |  |  | O=S(=O)(O)CCN1CCN(CCO)CC1 [Sodium 2-[4-(2-hydroxyethyl)piperazin-1-yl]ethanesulfonate]
9 |  | 170.7 |  |  |  | C=C(C)C(=O)OCCOC1CC2CC1C1C=CCC21 (configuration not stated) [(Dicyclopentadienyloxy)ethyl methacrylate]
10 | 140.1 |  |  |  |  | N=C1NC(=N)c2cc3ccccc3cc21 [1,3-Diiminobenz(f)isoindoline]
11 | 142.4 | 154.6 | 149.5 | 142.7 |  | O=S(=O)(O)CCCN1CCOCC1 [4-Morpholinepropanesulfonic acid]
12 |  | 191.1 |  |  |  | NC(=O)N(O)[C@@H]1C=C[C@H](Oc2cccc(Oc3ccc(F)cc3)c2)C1
13 | 185.2 | 181.8 |  | 185.5 |  | CCCCCCCCCCCC(=O)NCCCN(C)C [N-[3-(Dimethylamino)propyl]dodecanamide]
14 |  | 144.8 |  |  |  | CS(=O)(=O)OCCOS(C)(=O)=O [Ethylene dimethanesulfonate]
15 | 242.9 | 247.6 | 246.5 | 243.5 |  | C[C@]12CC[C@@H]3c4ccc(O)cc4C[C@@H](CCCCCCCCCS(=O)CCCC(F)(F)C(F)(F)F)[C@H]3[C@@H]1CC[C@@H]2O (some centres not stated) [Fulvestrant]
16 |  | 207.9 |  |  |  | CCCCCCCCC(=O)OCC(C)OC(=O)CCCCCCCC (configuration not stated) [Propylene glycol dipelargonate]
17 |  |  |  |  | 143.2 | CC1(CO)CN(c2ccccc2)NC1=O (configuration not stated) [4-(Hydroxymethyl)-4-methyl-1-phenylpyrazolidin-3-one]
18 |  |  | 146.2 |  |  | CCCCCCCCC(=O)O [Nonanoic acid]
19 | 132.4 | 146 |  | 131.3 |  | c1cnc2c(c1)ccc1cccnc12 [1,10-Phenanthroline]
20 |  |  | 155.1 |  |  | CC(C)(C)c1ccc(O)c(C(C)(C)C)c1 [2,4-Di-tert-butylphenol]
21 |  |  | 135.1 |  |  | CC(=O)NCc1ccccc1 [N-Benzylacetamide]
22 | 143.4 |  |  | 142.7 |  | CCCOC(=O)NCCCN(C)C [Propamocarb hydrochloride]
23 |  | 206.4 |  |  |  | CCCCCCCCOC(=O)/C=C\C(=O)OCCCCCCCC [2-Butenedioic acid (2Z)-, dioctyl ester]
24 |  | 159.2 | 154.4 |  |  | COc1ccc(OC)c(NC(=O)CC(C)=O)c1 [N-(2,5-Dimethoxyphenyl)-3-oxobutanamide]
25 | 121.8 |  |  | 120.7 |  | COc1cnccc1O [4-Hydroxy-3-methoxypyridine]
26 | 190.4 | 200.2 | 191.6 | 190.3 |  | O=C(N[C@@H](c1ccccc1)[C@@H]1CCCCN1)c1cccc(C(F)(F)F)c1Cl

Row | collision cross section in nitrogen [1] [Å²] | collision cross section in nitrogen [2] [Å²] | collision cross section in nitrogen [3] [Å²] | collision cross section in nitrogen [4] [Å²] | collision cross section in nitrogen [5] [Å²] | Structure (SMILES)
27 | 167.5 | 175.7 |  | 166.8 |  | CN(C)CCC=C1c2ccccc2CCc2ccccc21 [Amitriptyline hydrochloride]
28 | 196.9 |  | 202.7 |  |  | CC1=NN(c2cc(S(=O)(=O)O)ccc2Cl)C(=O)C1/N=N/c1ccccc1 (configuration not stated) [C.I. Acid Yellow 34, monosodium salt]
29 | 146.8 |  |  | 146.6 |  | CCCCCCCC(=O)N(C)C [N,N-Dimethyloctanamide]
30 | 153.3 | 156.9 | 156 | 153.7 |  | COc1ccc2[nH]cc(CCNC(C)=O)c2c1 [Melatonin]
31 |  |  |  | 162 |  | CN(C)CCOC(C)(c1ccccc1)c1ccccn1 (configuration not stated) [Doxylamine succinate]
32 | 182 | 173 | 177.8 |  |  | COc1cc(CNC(=O)CCCC/C=C/C(C)C)ccc1O [Capsaicin]
33 | 164.6 |  |  | 164 |  | CN(C)CCC(c1ccc(Cl)cc1)c1ccccn1 (configuration not stated) [Chlorpheniramine maleate]
34 |  |  | 183.2 |  |  | Cc1cc(-n2nc3ccc(Cl)cc3n2)c(O)c(C(C)(C)C)c1 [Bumetrizole]
35 | 138.9 |  | 139.3 | 138.8 | 139 | Nc1c2ccccc2nc2ccccc12 [9-Aminoacridine hydrochloride monohydrate]
36 | 132.5 | 146.4 | 135.5 | 133.9 |  | Cc1cc(=O)nc(C(C)C)[nH]1 [2-Isopropyl-6-methyl-4-pyrimidone]
37 | 143.5 | 156.7 |  | 143.1 |  | N=c1ccn2c(n1)O[C@H]1[C@H](O)[C@@H](CO)O[C@H]12 [Cyclocytidine]
38 | 137.3 | 146.7 |  | 136.3 |  | Cn1c(=O)c2[nH]cnc2n(C)c1=O [Theophylline]
39 | 192.8 | 207.7 |  | 192.4 | 190.2 | CCCCNc1ccc(NCCCC)c2c1C(=O)c1ccccc1C2=O [1,4-Bis(butylamino)anthracene-9,10-dione]
40 |  | 194.6 |  |  |  | CC(C)C(OC(=O)c1ccccc1)C(C)(C)COC(=O)c1ccccc1 (configuration not stated) [2,2,4-Trimethylpentane-1,3-diyl dibenzoate]
41 |  |  | 149 |  |  | NNc1nc(-c2ccc([N+](=O)[O-])cc2)cs1 [2-Hydrazino-4-(4-nitrophenyl)thiazole]
42 |  | 199 |  |  |  | CCCCCCCC/C=C/CCCCCCCC(=O)OCC(O)CO (stereo not drawn) [trans-Monoelaidin]
43 |  |  | 131.9 |  |  | Cc1ccccc1S(=O)(=O)O [2-Methylbenzenesulfonic acid]
44 |  | 191.9 |  |  |  | CCCCC(CC)COC(=O)CCCCC(=O)OCc1ccccc1 (configuration not stated) [Benzyloctyl adipate]
45 |  |  | 133.8 |  |  | Oc1c(Cl)cc(Cl)c(Cl)c1Cl [2,3,4,6-Tetrachlorophenol]
46 | 135 |  |  | 135.8 |  | CC1(C)Cc2cccc(N)c2O1 [2,2-Dimethyl-2,3-dihydro-1-benzofuran-7-amine]
47 |  |  | 141.1 |  |  | O=[N+]([O-])c1ccc2c(c1)Cc1ccccc1-2 [2-Nitrofluorene]
48 |  | 173.2 |  |  |  | CCN(CC)C(=S)SSC(=S)N(CC)CC [Tetraethylthiuram disulfide]
49 | 125.2 |  | 120.9 | 124.4 |  | Nc1ncnc2[nH]cnc12 [Adenine]
50 |  | 153.3 |  | 151.8 |  | COCCOCCOCCOCCOCCO [3,6,9,12,15-Pentaoxahexadecanol]
51 | 190.5 |  |  | 189.6 |  | CC(C)c1cccc(C(C)C)c1N=C=Nc1c(C(C)C)cccc1C(C)C [Bis(2,6-diisopropylphenyl)carbodiimide]

Row | Structure (SMILES) | collision cross section in nitrogen [1] [Å²] | collision cross section in nitrogen [2] [Å²] | collision cross section in nitrogen [3] [Å²] | collision cross section in nitrogen [4] [Å²] | collision cross section in nitrogen [5] [Å²]
52 | CCC(C)(C)c1ccc(O)cc1 [4-(2-Methylbutan-2-yl)phenol] |  |  | 143.8 |  | 
53 | COc1ccc(C(CN(C)C)C2(O)CCCCC2)cc1 (configuration not stated) [Venlafaxine hydrochloride] | 170.7 | 177.7 |  | 170.8 | 
54 | Clc1ccc(C2(Cn3cncn3)CC(Br)CO2)c(Cl)c1 (configuration not stated) [Bromuconazole] | 172.6 |  |  | 172.7 | 
55 | CCCC(=NOCC)C1=C(O)CC(CC(C)SCC)CC1=O (configuration not stated) [Sethoxydim] | 181 |  | 178.5 | 181.6 | 
56 | COc1ccc(N)cc1 [p-Anisidinium chloride] | 133.2 |  |  |  | 
57 | COP(=O)(OC)O/C(=C\Cl)c1cc(Cl)c(Cl)cc1Cl [Z-Tetrachlorvinphos] |  | 177.9 |  |  | 
58 | N#Cc1ccc(N(CC(N)=O)CC(F)(F)F)cc1C(F)(F)F |  |  | 163.7 |  | 
59 | ClCc1cccnc1 [3-(Chloromethyl)pyridine hydrochloride] |  |  |  | 123.8 | 
60 | O=[N+]([O-])c1ccc([As](=O)(O)O)cc1 [Nitarsone] | 144.4 |  | 138.9 |  | 
61 | c1nc[nH]n1 [1H-1,2,4-Triazole] |  |  | 107.7 |  | 
62 | CCOc1ccc(N)cc1 [4-Ethoxyaniline] | 139.8 |  |  |  | 
63 | O=C(O)C1C2CCC(O2)C1C(=O)O (configuration not stated) [Endothal] |  | 140.1 | 135.6 |  | 
64 | Nc1nc[nH]n1 [Amitrole] |  |  | 113.2 |  | 
65 | O=c1oc2ccccc2c(O)c1C(CC(O)c1ccc(-c2ccc(Br)cc2)cc1)c1ccccc1 (configuration not stated) [Bromadiolone] |  | 239.5 | 215.1 |  | 
